Laboratory results as given in ChEMBL document CHEMBL1149872, “Glycosides from the root of Iodes cirrhosa” (2008).

Tested on: PC-12
Test: Neuroprotective activity against rat PC12 cells assessed as glutamate-induced neurotoxicity at 10 uM after 24 hrs by MTT assay
Format: functional

Row | SMILES | Activity [%]
1 | COc1cc([C@@H](O)[C@H](CO)Oc2ccc(CCCO[C@@H]3O[C@H](CO)[C@@H](O)[C@H](O)[C@H]3O)cc2O)ccc1O | 36.4
2 | COc1cc([C@@H](O)[C@H](CO)O[C@@H]2O[C@H](CO)[C@@H](O)[C@H](O)[C@H]2O)ccc1O | -46.6
3 | COc1cc([C@H](O)[C@H](CO)O[C@@H]2O[C@H](CO)[C@@H](O)[C@H](O)[C@H]2O)cc(OC)c1O | -28.4
4 | COc1cc([C@H](O)[C@H](CO)O[C@@H]2O[C@H](CO)[C@@H](O)[C@H](O)[C@H]2O)ccc1O | -32.9
5 | COc1cc([C@H]2OC[C@H]3[C@@H]2CO[C@@H]3c2cc(OC)c(O[C@@H]3O[C@H](CO)[C@@H](O)[C@H](O)[C@H]3O)c(OC)c2)cc(OC)c1O[C@H]1O[C@@H](CO)[C@H](O)[C@@H](O)[C@@H]1O [LIRIODENDRTACHIOSIDE] | 20.5
